The values that follow are results of earlier work, collected in patent US20250325480A1, “Lipid Nanoparticle Compositions and Methods For Formulating Insoluble Drugs” (RESPIRERX PHARMACEUTICALS, INC., priority 2022, published 2025).

Assay in data set [1]: not given
This is another data set of the same source.

Turning to `CCCCCc1cc(O)c2c(c1)OC(C)(C)[C@@H]1CCC(C)=C[C@@H]21` [Dronabinol, (−)-trans-Δ^9-tetrahydrocannabinnol], the Adverse side effects entry (10 mg dose, Marinol package insert) was “unacceptable adverse side effects”. The OSA alleviating effects result (2.5 and 10 mg doses, first 4 hours of 8-hour test period) is “therapeutically equivalent OSA alleviating effects”. For the same compound, the “Therapeutic effects in OSA” value (second 4 hours of 8-hour test period) is “only the 10 mg dose produced therapeutic effects”. For the same compound, in data set [1] (as presently formulated), the “Metabolic breakdown upon first pass through the liver” value was “approximately 80%”. The Half-life in data set [1] (in vivo) is 2 to 3 h.
